In patent US5468486A, “Vaccine containing a protein alkaloid conjugate for the treatment of fescue toxicosis” (priority 1994, dated 1995):

Test system: antiserum produced against the ergonovine KLH conjugate
Test: Competitive ELISA
Assay type: binding, rabbit
Settings: for Concentration (ng/ml) of 50% A (A50) / IC50: predicted value for 50% maximal absorbance, linear regression, antiserum 1:1000, HSA-ergonovine coated plates; for IC50: read-out: Concentration (μM) of 50% A; for Cross Reactivity (%): relative to ergonovine
Method: Antiserum preparation: Three female New Zealand white rabbits were immunized with the HSA-ergonovine conjugate and two with the KLH-ergonovine conjugate. Initially, each rabbit was injected with 1 mg of the respective conjugate in 1 ml of phosphate buffered saline that had been emulsified with an equal amount of Freund's complete adjuvant. Booster injections of 0.2 mg of conjugate per rabbit, emulsified with Freund's incomplete adjuvant, were given at 5 and 10 weeks after the first injections. The rabbits were bled 8 and 16 days after each booster injection. Serum was collected after two cycles of low speed centrifugation. Serum from each rabbit was pooled before testing in the competitive enzyme linked immunosorbent assay (ELISA).
Competitive ELISA: Duplicate polystyrene ELISA plates were numbered and rinsed once with distilled water. The HSA-ergonovine conjugate [[…] in carbonate coating buffer (0.5μsodium carbonate, pH 9.6)] was pipetted into each well ([…]). After 2H at 30° C. the plates were washed 4 times quickly with physiologically buffered saline (PBS) Tween (0.02M phosphate, 0.15M NaCl, 3 mM KC1+0.05% TWEEN 20, pH 7.3). All subsequent rinse steps were done with PBS-Tween. Serial dilutions were made of […] compounds used in the competitive assay. All dilutions were made in PBS-Tween. These compounds and their initial concentrations were: agroclavine 0.5 mM, ergocryptine at 100 μM, unconjugated ergonovine at 1 μM, ergotamine at 100 μM, ergovaline at 10 μM, lysergol at 10 mM, dihydroergotamine at 200 μM and IAA at 1 mM. After placing 100 μl of each dilution in duplicate wells, an additional 100 μl of antiserum, produced against the ergonovine KLH conjugate, was added to each well at a dilution of 1:1000 and mixed. The plates were incubated for 2 H at 30° C. and again rinsed 4 times quickly. Protein-A alkaline phosphatase (0.5 μg/ml in PBS-Tween) was placed in wells (200 μl/well) and incubated for 2 H at 30° C. The plates were again rinsed 4 times. Substrate, SIGMA 104® phosphatase substrate (5 mg/ml), in 10% diethanolamine, pH 9.6 was added to each well (150 μl/well). The reaction was stopped after 30 min. with 3M NaOH (75 μl/well). The plates were read on a DYNATECH MINIREADER II® reader. Mean values were calculated from duplicate wells per plate and duplicate plates were averaged. From these values a percent maximal absorbance level was calculated.

CN1C[C@H](C(=O)N[C@]2(C)O[C@@]3(O)[C@@H]4CCCN4C(=O)[C@H](Cc4ccccc4)N3C2=O)C[C@@H]2c3cccc4[nH]cc(c34)C[C@H]21 [dihydroergotamine]
Concentration (ng/ml) of 50% A (A50): 6833 ng/mL

CN1C[C@H](C(=O)N[C@]2(C)O[C@@]3(O)[C@@H]4CCCN4C(=O)[C@H](Cc4ccccc4)N3C2=O)C=C2c3cccc4[nH]cc(c34)C[C@H]21 [ergotamine]
IC50: 0.4 µM

CC(C)[C@H]1C(=O)N2CCC[C@H]2[C@]2(O)O[C@@](C)(NC(=O)[C@@H]3C=C4c5cccc6[nH]cc(c56)C[C@H]4N(C)C3)C(=O)N12 [ergovaline]
Concentration (ng/ml) of 50% A (A50): 8 ng/mL | Concentration (ng/ml) of 50% A (A50) (listed as Ergovaline): below 100 ng/ml | IC50: 0.15 µM | Cross Reactivity (%): 20% | Cross Reactivity (%) (listed as Ergovaline): ≥ 2%

C[C@@H](CO)NC(=O)[C@@H]1C=C2c3cccc4[nH]cc(c34)C[C@H]2N(C)C1 [ergonovine]
Concentration (ng/ml) of 50% A (A50): 1.6 ng/mL | IC50: 0.05 µM | Cross Reactivity (%): 100%

CC(C)C[C@H]1C(=O)N2CCC[C@H]2[C@]2(O)O[C@](NC(=O)[C@@H]3C=C4c5cccc6[nH]cc(c56)C[C@H]4N(C)C3)(C(C)C)C(=O)N12 [ergocryptine]
Concentration (ng/ml) of 50% A (A50): 33 ng/mL | Concentration (ng/ml) of 50% A (A50) (listed as ergocrytine): below 100 ng/ml | IC50: 0.59 µM | Cross Reactivity (%): 5% | Cross Reactivity (%) (listed as ergocrytine): ≥ 2%

CC1=C[C@@H]2c3cccc4[nH]cc(c34)C[C@H]2N(C)C1 [agroclavine]
IC50: 3.2 µM

CN1C[C@H](CO)C=C2c3cccc4[nH]cc(c34)C[C@H]21 [lysergol]
Concentration (ng/ml) of 50% A (A50): 940 ng/mL | IC50: 3.7 µM | Cross Reactivity (%): 4% | Cross Reactivity (%) (listed as Lysergol): less than 1%
